pIC50: −log10 of the molar value.
Tests used:
[1] = target: T1, SSTR4 (Homo sapiens (Human), UniProt P31391); assay: Inhibition of forskolin stimulated cAMP in CHO-K1 cells overexpressing SSTR4; assay type: cell-based; settings: for EC50: read-out: SSTR4 Activity pEC50 (converted)
Procedure, shortened: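 Read-out is a HTRF LANCE Ultra cAMP competition using Eu-labelled streptavidin and biotin-cAMP, incubated 60 min at room temperature. It followed a 30 min room-temperature exposure of Kreb's Ringer-washed cells to compound plus forskolin. Potency is expressed as pEC50.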

[2] = target: T1, SSTR4; assay: SSTR4 I-125 somatostatin competition binding assay (membranes from CHO-K1 cells overexpressing SSTR4); settings: competition with I-125 labeled somatostatin; for IC50: read-out: SSTR4 Binding pIC50 (converted)
[3] = target: SSTR1 (Homo sapiens (Human), UniProt P30872); assay: SSTR1 I-125 somatostatin competition binding assay for selectivity versus SSTR4 (membranes from CHO-K1 cells overexpressing SSTR1); settings: for SSTR1 Binding pIC50: competition with I-125 labeled somatostatin, CHO-K1 SSTR1 membranes;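 on all read-outs here: Filter-based radioligand binding, bound label counted by scintillation after 60 min incubation at room temperature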
Sequence of SSTR1 (P30872 whole entry): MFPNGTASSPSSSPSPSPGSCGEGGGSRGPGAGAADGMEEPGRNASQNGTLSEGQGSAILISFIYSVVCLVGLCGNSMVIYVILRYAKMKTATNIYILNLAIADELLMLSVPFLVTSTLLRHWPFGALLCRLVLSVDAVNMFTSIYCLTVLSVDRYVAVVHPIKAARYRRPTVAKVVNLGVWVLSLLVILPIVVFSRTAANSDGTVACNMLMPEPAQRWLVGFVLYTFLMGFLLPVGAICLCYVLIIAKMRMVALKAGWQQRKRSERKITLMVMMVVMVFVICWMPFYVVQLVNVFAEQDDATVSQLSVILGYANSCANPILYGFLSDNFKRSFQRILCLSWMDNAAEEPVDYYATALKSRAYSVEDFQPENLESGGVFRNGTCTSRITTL
Description: Membranes from CHO-K1 cells overexpressing SSTR1 are purchased from Perkin Elmer (catalog number ES-520-M400UA). […] Then 10 μg of SSTR1 membranes in 50 μL assay buffer are added per well. The plate is incubated for 60 minutes at room temperature. […] The contents of the assay plate are transferred to filters with a TomTech harvester and washed 5 times with 20 mM HEPES, 100 mM NaCl. […] The scintillator sheets are melted to the filters using a heat block. The filters are then read in a MicroBeta scintillation counter. Binding Ki curves are generated using Activity Base for Screening Data Management and the results are reported as pIC50.

T1 sequence (P31391 whole entry): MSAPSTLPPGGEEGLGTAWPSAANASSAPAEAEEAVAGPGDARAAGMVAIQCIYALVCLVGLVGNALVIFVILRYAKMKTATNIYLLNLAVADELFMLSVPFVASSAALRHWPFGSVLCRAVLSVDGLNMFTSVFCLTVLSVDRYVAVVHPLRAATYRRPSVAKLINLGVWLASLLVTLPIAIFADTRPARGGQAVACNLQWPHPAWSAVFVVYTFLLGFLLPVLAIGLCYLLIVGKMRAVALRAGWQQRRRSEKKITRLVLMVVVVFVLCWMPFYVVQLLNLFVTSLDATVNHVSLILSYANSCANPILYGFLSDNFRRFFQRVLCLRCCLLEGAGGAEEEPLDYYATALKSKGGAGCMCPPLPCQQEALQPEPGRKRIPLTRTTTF

Row | EC50 [1] | IC50 [2] | pIC50 [3] | SMILES | SSTR4 Activity pEC50 [1] | SSTR4 Binding pIC50 [2] | SSTR1 Binding pIC50 [3]
1 | – | – | – | C[C@H]1CNCC[C@@H]1NC(=O)C(C)(C)COc1ccccc1Cl [Example 190, 3-(2-chlorophenoxy)-2,2-dimethyl-N-((3S,4S)-3-methylpiperidin-4-yl)propanamide] | 9.8 | 7.6 | 5.3
2 | – | – | – | C[C@H]1C[C@@H](NC(=O)C(C)(C)COc2ncccc2OC(F)(F)F)CCN1C (relative stereo) [Example 136, cis-N-(1,2-dimethylpiperidin-4-yl)-2,2-dimethyl-3-((3-(trifluoromethoxy)pyridin-2-yl)oxy)propanamide] | 8.1 | 7.1 | 4.8
3 | – | – | – | CN1CCC(NC(=O)C(C)(C)COc2ncccc2C2CC2)CC1 [Example 47, 3-((3-cyclopropylpyridin-2-yl)oxy)-2,2-dimethyl-N-(1-methylpiperidin-4-yl)propanamide] | 8.1 | 7.1 | 4.8
4 | – | – | – | C[C@H]1CNCC[C@@H]1NC(=O)C(F)(F)COc1ncccc1OC(F)(F)F [Example 210, 2,2-difluoro-N-((3S,4S)-3-methylpiperidin-4-yl)-3-((3-(trifluoromethoxy)pyridin-2-yl)oxy)propanamide] | 9.1 | 7.6 | 4.5
5 | – | – | – | CN1CCC(NC(=O)C(C)(C)COc2ccccc2C2CC2)CC1 [Example 70, 3-(2-cyclopropylphenoxy)-2,2-dimethyl-N-(1-methylpiperidin-4-yl)propanamide] | 8.4 | 7.6 | 5.5
6 | – | – | – | CC(C)[C@@H]1CN(C)C[C@H]1NC(=O)C(C)(C)COc1ncccc1OC(F)(F)F (relative stereo) [Example 16, trans-N-(4-isopropyl-1-methylpyrrolidin-3-yl)-2,2-dimethyl-3-((3-(trifluoromethoxy)pyridin-2-yl)oxy)propanamide] | 7.8 | 7.2 | 5.5
7 | – | – | – | C[C@@H]1C[C@H](NC(=O)C(F)(F)COc2ncccc2C2CC2)CCN1C [Example 194, 3-((3-cyclopropylpyridin-2-yl)oxy)-N-((2R,4R)-1,2-dimethylpiperidin-4-yl)-2,2-difluoropropanamide] | 8.4 | 7.7 | 4.4
8 | – | – | – | C[C@@H]1C[C@H](NC(=O)C(F)(F)COc2ncccc2OC(F)(F)F)CCN1 [Example 212, 2,2-difluoro-N-((2R,4R)-2-methylpiperidin-4-yl)-3-((3-(trifluoromethoxy)pyridin-2-yl)oxy)propanamide] | 8.6 | 7.4 | 4.5
9 | – | – | – | C[C@@H]1CN(C)C[C@H]1NC(=O)C(C)(C)COc1ncccc1OC(F)(F)F (relative stereo) [Example 180, N-(trans-1,4-dimethylpyrrolidin-3-yl)-2,2-dimethyl-3-((3-(trifluoromethoxy)pyridin-2-yl)oxy)propanamide] | 7.6 | 6.5 | 5.4
10 | – | – | – | CN1CC[C@H](NC(=O)C(C)(C)COc2ncccc2C2CC2)[C@@H](F)C1 [Example 123, 3-((3-cyclopropylpyridin-2-yl)oxy)-N-((3S,4S)-3-fluoro-1-methylpiperidin-4-yl)-2,2-dimethylpropanamide] | 7.8 | 7.2 | 4.9
11 | 31.6 nM | 126 nM | 4.40 | C[C@@H]1CN(C)CC[C@H]1NC(=O)C(F)(F)COc1ncccc1OC(F)(F)F (racemic) [Example 200, N-(trans-1,3-dimethylpiperidin-4-yl)-2,2-difluoro-3-((3-(trifluoromethoxy)pyridin-2-yl)oxy)propanamide] | – | – | –
12 | – | – | – | CN1CCC(NC(=O)C(C)(C)COc2ccccc2Cl)CC1 [Example 66, 3-(2-chlorophenoxy)-2,2-dimethyl-N-(1-methylpiperidin-4-yl)propanamide] | 7.7 | 7.0 | 4.9
13 | – | – | – | CC(C)(COc1ccccc1Cl)C(=O)N[C@H]1CCNC[C@@H]1F [Example 187, 3-(2-chlorophenoxy)-N-((3S,4S)-3-fluoropiperidin-4-yl)-2,2-dimethylpropanamide] | 8.8 | 8.4 | 4.8
14 | 15.8 nM | 398 nM | 5.50 | C[C@@H]1CN(C)C[C@H]1NC(=O)C(C)(C)COc1ncccc1C1CC1 (racemic) [Example 181, 3-((3-cyclopropylpyridin-2-yl)oxy)-N-(trans-1,4-dimethylpyrrolidin-3-yl)-2,2-dimethylpropanamide] | – | – | –
15 | – | – | – | C[C@@H]1CN(C)CC[C@H]1NC(=O)C(C)(C)COc1ccccc1Cl (relative stereo) [Example 186, trans-3-(2-chlorophenoxy)-N-(1,3-dimethylpiperidin-4-yl)-2,2-dimethylpropanamide] | 8.1 | 7.4 | 5.5
16 | – | – | – | CN1CC[C@H](NC(=O)C(C)(C)COc2ncccc2C(F)(F)F)[C@H](c2ccccc2)C1 (relative stereo) [Example 163, 2,2-dimethyl-N-(cis-1-methyl-3-phenylpiperidin-4-yl)-3-((3-(trifluoromethyl)pyridin-2-yl)oxy)propanamide] | 7.3 | 6.1 | 5.2
17 | 20 nM | 158 nM | 5.50 | CC(C)[C@@H]1CN(C)C[C@H]1NC(=O)C(C)(C)COc1ncccc1C(F)(F)F (racemic) [Example 15, trans-N-(4-isopropyl-1-methylpyrrolidin-3-yl)-2,2-dimethyl-3-((3-(trifluoromethyl)pyridin-2-yl)oxy)propanamide] | – | – | –
18 | 31.6 nM | 158 nM | 5.30 | C[C@@H]1CN(C)C[C@H]1NC(=O)C(C)(C)COc1ncccc1C(F)(F)F (racemic) [Example 165, N-(trans-1,4-dimethylpyrrolidin-3-yl)-2,2-dimethyl-3-((3-(trifluoromethyl)pyridin-2-yl)oxy)propanamide] | – | – | –
19 | – | – | – | CC(C)(COc1ccccc1Cl)C(=O)NC1CCNCC1 [Example 213, 3-(2-chlorophenoxy)-2,2-dimethyl-N-(piperidin-4-yl)propanamide] | 8.7 | 7.6 | 4.6
20 | – | – | – | CN1CCC(NC(=O)C(C)(C)COc2ccccc2Br)CC1 [Example 67, 3-(2-bromophenoxy)-2,2-dimethyl-N-(1-methylpiperidin-4-yl)propanamide] | 8.1 | 7.4 | 5.1
21 | – | – | – | CN1CCC(NC(=O)C(C)(C)COc2ncccc2C(F)(F)F)C2(CC2)C1 (stereo not drawn) [Example 114, 2,2-dimethyl-N-(5-methyl-5-azaspiro[2.5]octan-8-yl)-3-((3-(trifluoromethyl)pyridin-2-yl)oxy)propanamide] | 8.0 | 6.9 | 4.6
22 | – | – | – | Cc1c([C@@H]2CN(C)C[C@H]2NC(=O)C(C)(C)COc2ncccc2C(F)(F)F)cnn1C (relative stereo) [Example 28, trans-N-(4-(1,5-dimethyl-1H-pyrazol-4-yl)-1-methylpyrrolidin-3-yl)-2,2-dimethyl-3-((3-(trifluoromethyl)pyridin-2-yl)oxy)propanamide] | 8.8 | 7.7 | 6.8
23 | – | – | – | C[C@H]1CNCC[C@@H]1NC(=O)C(F)(F)COc1ncccc1C(F)(F)F [Example 208, 2,2-difluoro-N-((3S,4S)-3-methylpiperidin-4-yl)-3-((3-(trifluoromethyl)pyridin-2-yl)oxy)propanamide] | 8.6 | 7.1 | 4.4
24 | – | – | – | CN1CCC(NC(=O)C(C)(C)COc2ccccc2OC(F)(F)F)CC1 [Example 102, 2,2-dimethyl-N-(1-methylpiperidin-4-yl)-3-(2-(trifluoromethoxy)phenoxy)propanamide] | 8.7 | 7.8 | 5.6
25 | – | – | – | Cc1cccnc1OCC(C)(C)C(=O)N[C@@H]1CN(C)C[C@H]1c1cnn(C)c1 (relative stereo) [Example 18, trans-2,2-dimethyl-N-(1-methyl-4-(1-methyl-1H-pyrazol-4-yl)pyrrolidin-3-yl)-3-((3-methylpyridin-2-yl)oxy)propanamide] | 7.1 | 6.0 | 5.1
26 | – | – | – | Cc1ccccc1[C@@H]1CN(C)CC[C@H]1NC(=O)C(C)(C)COc1ncccc1C(F)(F)F (relative stereo) [Example 161, 2,2-dimethyl-N-(trans-1-methyl-3-(o-tolyl)piperidin-4-yl)-3-((3-(trifluoromethyl)pyridin-2-yl)oxy)propanamide] | 9.1 | 7.7 | 6.5
27 | 15.8 nM | 200 nM | 6.60 | Cc1ccc([C@@H]2CN(C)C[C@H]2NC(=O)C(C)(C)COc2ncccc2C(F)(F)F)cn1 (racemic) [Example 62, trans-2,2-dimethyl-N-(1-methyl-4-(6-methylpyridin-3-yl)pyrrolidin-3-yl)-3-((3-(trifluoromethyl)pyridin-2-yl)oxy)propanamide] | – | – | –
